The values that follow come from US20090170813A1, “Hypophosphorous Acid Derivatives and their Therapeutical Applications” (priority 2005, published 2009).

Experiment [1] deals with T1, rat mGlu4 (Rattus norvegicus, UniProt P31423).
T1 construct: expressed in transfected cells; host or cells: HEK293
As to the kind of experiment: Agonist activity, [3H]phosphatidylinositol accumulation in HEK293 cells transfected with rat mGlu4 and Gqi9. It is filed as cell-based. On the procedure: Agonist activity of the compounds was tested on HEK293 cells transiently transfected with rat mGlu4 expressing plasmid pRKG4 and chimeric G-protein Gqi9 by electroporation, as described by Gomeza, J. et al, Mol. Pharmacol; 1996, 50, 923-930.
Cells were plated in 96-well culture plates and labeled overnight with [^3H]myoinositol. The day after, cells were washed three times with Krebs buffer, incubated for 10 min with LiCl 5 mM, and then incubated for 30 min in the absence (basal) or in the presence of the indicated compounds at 1 nM up to 1000 μM. The total amount of [^3H]phosphatidylinositol accumulated in the cells was determined after Dowex purification as previously by Goudet C, et al, Prod. Natl. Acad. Sci. USA 2004, 101, 378-383.
The response dosis curves were adjusted by using equatrier y=[(Ymax−ymin)/(1+(x/EC50)^n)]+ymin where EC50 is the concentration necessary for obtaining half of the maximal effect and n is Hill coefficient.

Experiment [2] has as its target mGlu7 (Homo sapiens, UniProt Q14831). Nature of the experiment: Agonist activity on group III receptor mGlu7.
For experiment [3], the target named is mGlu8 (Homo sapiens, UniProt O00222). Nature of the experiment: Agonist activity on group III receptor mGlu8.
In experiment [4] the target is T2, mGlu4R (Homo sapiens, UniProt Q14833). The following applies: background statement; read-out: EC50 as mGlu4R agonist; cited from earlier work.
Experiment [5] has as its target T2, mGlu4R. The settings on record: background statement; read-out: IC50 as competitive antagonist; cited from earlier work.
Setting [6] is: Table 1, mean ± spread (n), read-out: EC50 mGlu4.
Where [7] appears, read: Table 2, n in brackets, read-out: mGlu4 EC50 μM (n).

Each structure is given as a SMILES string. Like-named read-outs stand apart in the source and are kept apart here.

Broadly, the EC50 is the concentration that produces a half-maximal response. The term IC50 denotes the concentration that inhibits the measured activity by half.

T1 sequence (P31423 33-912): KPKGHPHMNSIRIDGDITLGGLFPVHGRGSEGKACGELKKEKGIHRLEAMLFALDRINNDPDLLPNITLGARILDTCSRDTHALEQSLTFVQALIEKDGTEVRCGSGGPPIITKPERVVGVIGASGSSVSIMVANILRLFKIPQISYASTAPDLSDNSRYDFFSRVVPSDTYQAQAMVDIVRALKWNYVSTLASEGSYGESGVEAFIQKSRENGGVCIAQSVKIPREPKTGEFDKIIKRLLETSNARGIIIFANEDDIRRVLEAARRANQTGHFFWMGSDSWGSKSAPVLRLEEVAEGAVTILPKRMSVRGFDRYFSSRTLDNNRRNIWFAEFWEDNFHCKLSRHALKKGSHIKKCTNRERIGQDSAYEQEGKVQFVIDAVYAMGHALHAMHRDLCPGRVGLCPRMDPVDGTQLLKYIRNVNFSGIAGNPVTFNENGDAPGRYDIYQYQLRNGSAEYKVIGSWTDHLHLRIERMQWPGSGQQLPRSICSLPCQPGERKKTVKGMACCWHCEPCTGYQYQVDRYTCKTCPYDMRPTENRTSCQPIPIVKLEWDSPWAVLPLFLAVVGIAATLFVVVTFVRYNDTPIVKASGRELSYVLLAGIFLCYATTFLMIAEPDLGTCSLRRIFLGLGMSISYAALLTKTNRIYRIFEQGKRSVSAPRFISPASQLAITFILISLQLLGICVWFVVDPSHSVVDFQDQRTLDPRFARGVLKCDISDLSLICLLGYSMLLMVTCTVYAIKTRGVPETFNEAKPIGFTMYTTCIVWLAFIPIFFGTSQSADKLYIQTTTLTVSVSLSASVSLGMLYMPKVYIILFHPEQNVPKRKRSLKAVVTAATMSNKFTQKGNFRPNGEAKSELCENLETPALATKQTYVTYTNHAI
mGlu8, sequence (O00222 34-908): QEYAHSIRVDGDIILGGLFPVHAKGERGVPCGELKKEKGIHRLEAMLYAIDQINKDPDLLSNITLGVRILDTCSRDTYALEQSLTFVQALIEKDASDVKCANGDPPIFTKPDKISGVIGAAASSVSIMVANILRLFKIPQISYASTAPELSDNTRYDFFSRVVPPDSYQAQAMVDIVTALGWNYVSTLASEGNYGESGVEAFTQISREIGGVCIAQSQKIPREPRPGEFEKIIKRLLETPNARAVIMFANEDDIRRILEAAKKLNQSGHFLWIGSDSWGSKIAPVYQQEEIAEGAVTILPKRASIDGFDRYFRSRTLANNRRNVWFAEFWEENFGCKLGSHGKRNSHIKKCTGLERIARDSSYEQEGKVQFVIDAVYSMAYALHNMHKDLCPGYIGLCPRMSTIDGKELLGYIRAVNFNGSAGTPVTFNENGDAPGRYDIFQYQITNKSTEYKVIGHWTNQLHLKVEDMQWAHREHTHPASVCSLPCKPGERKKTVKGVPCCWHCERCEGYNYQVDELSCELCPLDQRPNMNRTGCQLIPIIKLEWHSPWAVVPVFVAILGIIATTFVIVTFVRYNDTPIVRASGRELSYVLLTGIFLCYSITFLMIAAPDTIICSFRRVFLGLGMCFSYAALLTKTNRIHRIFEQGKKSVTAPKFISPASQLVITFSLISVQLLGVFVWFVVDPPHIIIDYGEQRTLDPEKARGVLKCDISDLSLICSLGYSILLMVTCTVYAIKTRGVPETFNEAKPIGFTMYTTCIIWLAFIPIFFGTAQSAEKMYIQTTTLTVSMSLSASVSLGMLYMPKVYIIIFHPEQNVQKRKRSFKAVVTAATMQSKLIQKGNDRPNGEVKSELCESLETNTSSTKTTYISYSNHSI
mGlu7, sequence (Q14831 35-915): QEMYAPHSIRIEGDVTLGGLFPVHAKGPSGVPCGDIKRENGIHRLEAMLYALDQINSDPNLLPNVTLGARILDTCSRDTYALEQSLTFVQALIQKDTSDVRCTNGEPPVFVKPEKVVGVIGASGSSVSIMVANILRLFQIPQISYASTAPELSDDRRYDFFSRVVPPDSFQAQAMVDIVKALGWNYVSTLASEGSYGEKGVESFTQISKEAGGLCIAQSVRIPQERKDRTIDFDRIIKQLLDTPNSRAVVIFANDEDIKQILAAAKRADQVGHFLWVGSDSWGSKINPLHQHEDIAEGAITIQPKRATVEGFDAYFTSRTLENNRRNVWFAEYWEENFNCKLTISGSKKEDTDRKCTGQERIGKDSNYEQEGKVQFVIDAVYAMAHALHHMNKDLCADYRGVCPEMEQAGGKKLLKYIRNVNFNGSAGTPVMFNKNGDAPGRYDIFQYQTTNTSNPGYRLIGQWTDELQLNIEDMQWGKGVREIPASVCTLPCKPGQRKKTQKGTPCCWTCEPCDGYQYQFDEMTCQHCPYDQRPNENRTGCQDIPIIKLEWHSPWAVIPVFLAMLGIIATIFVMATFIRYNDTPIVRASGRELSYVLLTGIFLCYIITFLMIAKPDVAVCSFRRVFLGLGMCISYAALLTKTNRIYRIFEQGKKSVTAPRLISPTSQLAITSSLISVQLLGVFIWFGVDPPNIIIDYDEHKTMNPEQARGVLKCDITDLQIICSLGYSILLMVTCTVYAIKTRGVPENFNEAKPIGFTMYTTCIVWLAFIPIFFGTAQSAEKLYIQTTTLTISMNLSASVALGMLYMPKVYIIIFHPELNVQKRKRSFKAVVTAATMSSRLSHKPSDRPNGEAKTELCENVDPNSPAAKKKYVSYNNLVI
T2 sequence (Q14833 33-912): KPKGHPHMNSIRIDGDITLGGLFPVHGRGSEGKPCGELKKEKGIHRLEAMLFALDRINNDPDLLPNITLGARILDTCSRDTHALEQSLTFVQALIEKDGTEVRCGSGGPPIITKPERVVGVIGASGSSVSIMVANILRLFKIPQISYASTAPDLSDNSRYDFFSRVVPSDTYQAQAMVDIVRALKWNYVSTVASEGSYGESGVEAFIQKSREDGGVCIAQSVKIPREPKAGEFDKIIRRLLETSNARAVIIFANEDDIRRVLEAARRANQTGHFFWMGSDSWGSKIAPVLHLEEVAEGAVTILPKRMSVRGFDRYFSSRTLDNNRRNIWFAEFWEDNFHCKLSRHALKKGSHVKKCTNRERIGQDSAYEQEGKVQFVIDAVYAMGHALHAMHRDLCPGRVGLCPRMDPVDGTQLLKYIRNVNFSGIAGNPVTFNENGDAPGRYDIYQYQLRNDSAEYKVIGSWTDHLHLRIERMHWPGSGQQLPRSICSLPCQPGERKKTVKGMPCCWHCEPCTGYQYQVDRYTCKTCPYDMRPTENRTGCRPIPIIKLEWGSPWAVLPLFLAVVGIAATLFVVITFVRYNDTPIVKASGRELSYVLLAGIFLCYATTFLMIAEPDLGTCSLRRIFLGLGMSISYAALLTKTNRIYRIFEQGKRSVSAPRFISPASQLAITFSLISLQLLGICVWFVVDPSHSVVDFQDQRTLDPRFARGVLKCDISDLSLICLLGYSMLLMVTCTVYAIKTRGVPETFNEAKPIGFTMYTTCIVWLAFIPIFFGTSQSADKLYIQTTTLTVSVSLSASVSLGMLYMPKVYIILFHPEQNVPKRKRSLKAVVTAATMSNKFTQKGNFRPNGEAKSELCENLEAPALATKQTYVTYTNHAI

For the molecule `NC(CCP(=O)(O)CCC(=O)O)C(=O)O` (racemic) [Compound 4, 3-[((3-Amino-3-carboxy)propyl)(hydroxy)phosphinyl]propanoic Acid], the EC50 in experiment [1] (setting [6]) is 6.6 ± 2.8 µM; in experiment [1] (setting [7]) it was 7.1 µM; in experiment [2], more than 1000 µM; in experiment [3], 24.2 ± 9 µM.
Turning to `N[C@H](CCP(=O)(O)CCC(=O)O)C(=O)O` [(3R)-PCEP, 3-amino-carboxy-propyl-2′-carboxy-ethylphosphinic acid, reference compound], the EC50 in experiment [1] (setting [6]) was 24.2 ± 7.6 µM; in experiment [2] (read-out: EC50 mGlu7, Table 1), more than 1000 µM; in experiment [3] (read-out: EC50 mGlu8, Table 1, mean ± spread (n)) it was 58.2 ± 8.8 µM.
Take `N[C@@H](CCP(=O)(O)C(O)c1c([N+](=O)[O-])cccc1[N+](=O)[O-])C(=O)O` (stereo partly drawn) [Compound 90, (3S)-2-[(((3-amino-3-carboxy)propyl)(hydroxy)phosphinyl)-hydroxymethyl] 1,3-dinitro benzene]: in experiment [1] (setting [7]), the EC50 was 1.96 µM.
As for `N[C@@H](CCP(=O)(O)C(O)c1ccc([N+](=O)[O-])c(C(F)(F)F)c1)C(=O)O` (stereo partly drawn) [Compound 94, (3S)-4-[(((3-amino-3-carboxy)propyl)(hydroxy)phosphinyl)-hydroxymethyl] 2-trifluoro methyl-1-nitrobenzene], the EC50 in experiment [1] (setting [7]) amounted to 0.305 µM.
As to `N[C@@H](CCP(=O)(O)C(O)c1cc([N+](=O)[O-])cc([N+](=O)[O-])c1)C(=O)O` (stereo partly drawn) [Compound 97, (3S)-3-[(((3-amino-3-carboxy)propyl)(hydroxy)phosphinyl)-hydroxymethyl] 1,5-dinitrobenzene], the EC50 in experiment [1] (setting [7]) was found to be 0.81 µM.
As to `NC(CCP(=O)(O)O)C(=O)O` [L-AP4], in experiment [4], the EC50 is 0.32 µM.
`CC(N)(CCP(=O)(O)O)C(=O)O` (stereo not drawn) [α-methyl analogue]: the IC50 in experiment [5] is 100 µM.
